This passage reports Kd results from patent publication US9551722B2, “Amyloid binding agents” (The Regents of the University of California, priority 2009, dated 2017).

Molecules are shown by their SMILES.

T1 sequence (P05067 672-713 limits assumed): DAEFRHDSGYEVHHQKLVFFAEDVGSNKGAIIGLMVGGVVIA

The test addresses T1, pre-aggregated Aβ(1-42) peptide (Homo sapiens, UniProt P05067).
T1 construct: preaggregated Aβ(1-42) peptides
The experiment in a line: Apparent binding constant (Kd) by double reciprocal fluorescence plot. To be noted: compound 10, 5, 2.5, 1.25 μM; 5.0 μM pre-aggregated Aβ(1-42); PBS pH 7.4. How it is done: We also measured the apparent binding constants (Kd) of the compounds (in concentrations of 10, 5, 2.5 and 1.25 μM) to 5.0 μM pre-aggregated Aβ(1-42) peptide. The Kd can be measured from the double reciprocal of the fluorescent maximum and the concentration of the compound. See H. LeVine III, Protein Sci. 1993, 2:404-410. […] [22,] See LeVine, Id.; Lockhart, L. Ye, D. B. Judd, A. T. Merritt, P. N. Lowe, J. L. Morgenstern, G. Z. Hong, A. D. Gee, J. Brown, J. Biol. Chem. 2005, 280:7677-7684; M. Biancalana, K. Makabe, A. Koide, S. Koide, J. Mol. Biol. 2008, 383:205-213; M. Biancalana, K. Makabe, A. Koide, S. Koide, J. Mol. Biol. 2009, 385:1052-1063. The Kd corresponds to the −1/(x-intercept) of the linear regression.
Pre-aggregated Aβ(1-42) (5 μM final concentration) was mixed with various concentrations of compounds described herein (10, 5, 2.5, 1.25 μM) in PBS buffer (pH 7.4) and their fluorescence was measured. The negative inverse of the x-intercept of the linear regression, that was drawn between the double reciprocal of the fluorescence intensity maximum and concentration of the compound, represents the compound binding constant (Kd) to Aβ(1-42).
In order to quantify the dissociation constants (Kd's) for the binding of fluorescent compounds with aggregated β-amyloid peptides, we used the method described by LeVine (see H. LeVine III, Protein Sci. 1993, 2, 404-410). This method is similar to the method described by Benesi-Hildebran (see C. Yang, L. Liu, T. W. Mu, Q. X. Guo, Anal. Sci. 2000, 16, 537-539). Here, the fluorescence of the compound was measured with and without the addition of the aggregated peptides in solution. The relative fluorescence enhancement of the compound upon binding to aggregated β-amyloid peptides was determined by taking the difference between F (fluorescence after the addition of aggregated peptides) and F (fluorescence before the addition of aggregated peptides).
In order to estimate the binding constant (Kd) for the compound-Aβ complexes from the fluorescence studies, we made the following assumptions: • 1. All compounds are completely in solution and free of any significant competing binding process such as self-aggregation. • 2. The concentration of unbound compounds can be approximated as close to the total concentration of the compounds. • 3. The binding sites in the aggregated Aβ peptides are not completely occupied at the concentration of Aβ-binding compounds used for the fluorescence studies (i.e., the experiments are carried out under non-saturated binding conditions).
FIG. 2 and FIG. 6 provide double reciprocal plots of the measured fluorescence versus total concentration of compound [GO]. Assuming that [G] can be approximated as close to [GO] (assumption 2), we can obtain estimates for the Kd's of the compound-Aβ complexes from the x-intercept of the linear fits of the data for each compound.
With `CCN(CC)c1ccc(C=C(C#N)C(=O)OCCOCCOCCOC)cc1` (stereo in doubt) [Cmpd 8c, (Z)-2-(2-(2-methoxyethoxyl)ethoxy)ethyl 2-cyano-3-(4-(diethylamino)phenyl)acrylate], the Kd came to 4.8 µM.
To `CCCCN(CCCC)c1ccc(C=C(C#N)C(=O)OCCOCCOCCOC)cc1` (stereo in doubt) [Cmpd 8d, (Z)-2-(2-(2-methoxyethoxyl)ethoxy)ethyl-2-cyano-3-(4-(dibutylamino)phenyl)acrylate] belongs 4.4 µM.
With `COCCOCCOCCOC(=O)/C(C#N)=C/c1ccc(N(C)C)cc1` [Cmpd 8a, (E)-2-(2-(2-methoxyethoxyl)ethoxy)ethyl 2-cyano-3-(4-(dimethylamino)phenyl)acrylate] the figure was 2.6 µM.
In the case of `COCCOCCOCCOC(=O)/C(C#N)=C/c1ccc(N(C)C)cc1OC` [Cmpd 8b, (E)-2-(2-(2-methoxyethoxyl)ethoxy)ethyl 2-cyano-3-(4-(dimethylamino)-2-methoxyphenyl)acrylate], the Kd came out at 5.3 µM.
Consider `COCCOCCOCCOC(=O)/C(C#N)=C/c1ccc2cc(N3CCCCC3)ccc2c1` [Cmpd 11, (E)-2-(2-(2-methoxyethoxyl)ethoxy)ethyl-2-cyano-3-(6-(piperidin-1-yl)naphthalen-2-yl)acrylate], for which the Kd turned out to be 2.5 µM.
Consider `CN(C)c1ccc(/C=C(\C#N)C(=O)OCC(O)CO)cc1` (stereo not drawn) [Cmpd 14, (E)-2,3-dihydroxypropyl 2-cyano-3-(4-(dimethylamino)phenyl) acrylate], for which the Kd turned out to be 3.3 µM.
